In a melting point compilation (Tetko et al.; mined from patent text by program, amines drawn as free bases though some values may be those of a salt):

melting point	SMILES
123 to 124 °C	Cc1sc(-c2ccccc2)nc1COc1cc(COc2ncccc2C=O)on1
201 to 203 °C	CS(=O)(=O)N1CC2(CCN(C(=O)Nc3cnc(-c4ccccc4)cn3)CC2)c2ccccc21
196 to 198 °C	CC(COc1c(-c2ccccc2)c(=O)[nH]c2cc(Cl)ccc12)=NO
75 to 79 °C	C[C@@H](O)c1cc2cc(CN3CCOCC3)cc3c(=O)c(C(=O)NCc4ccc(Cl)cc4)cn1c23
287 to 289 °C	Cc1c(-c2ccccc2)oc2c(C(=O)O)cc(Br)cc2c1=O
124 to 125 °C	CC(C)(C)c1ccc(C(=O)c2c(N)sc3c2CCN(Cc2ccccc2)C3)cc1
107 °C	Brc1ccc(-c2ccnc(-c3ccccc3)n2)cc1
170 to 171 °C	CC1(C)CN=C2C(=O)c3cc(S(=O)(=O)N4CCc5ccccc54)ccc3N2C1
249 to 250 °C	CCOC(=O)Cn1c(=O)[nH]c(=O)c2ccccc21
159 to 161 °C	CC(=O)c1cccc2c(=O)c(C)c(-c3ccccc3)oc12
257 to 259 °C	O=C(O)CN[C@H]1CCN(c2ccc3c(NC(=O)CC4CCCCC4)c(Cl)ccc3n2)C1
213 to 215 °C	CC1CCc2c(cc(-c3ccccc3)n2-c2ccc(O)c(C(=O)O)c2)C1 (centres undefined)
222 to 224 °C	Cc1[nH]c(-c2ccccc2)nc1-c1ccc(Cl)cc1Cl
> 250 °C	CN1CCN(c2ccc(-c3nc(C(=O)Nc4nccs4)c(-c4ccc(Cl)cc4)[nH]3)cc2)CC1
230 °C	CN1CCN(c2cc3c(cc2F)c(=O)c(C(=O)O)cn3C2CC2)CC1c1ccsc1 (centres undefined)
226 °C	Cc1[nH]c(=S)n(Nc2cccc(F)c2)c1-c1ccccc1
273 to 274 °C	Cc1c(C(=O)O)cnn1-c1nc(-c2ccc3ccccc3c2)cs1
225 °C	Cc1ncsc1CCNC(=O)c1cnc(N2CCN(C(=O)c3c(-c4ccccc4)n(C)c4cccnc34)CC2)cn1
254 to 257 °C	CC1(C)Cc2ccccc2C1c1cnccc1C(=O)O (centres undefined)
203 to 205 °C	N#Cc1ccc(OCc2ccnnc2)cc1OC(C(=O)O)c1ccccc1Cl (racemic)
159 to 161 °C	O=C(O)CC(=O)Oc1cccc(-c2cn3c(n2)sc2ccccc23)c1
188 °C	COc1cc(OCc2ccccn2)ccc1/C=C/C(=O)CC(=O)/C=C/c1cc2ccccc2s1
61 to 62 °C	OC(COc1ccccc1)c1ccccc1 (centres undefined)
100 to 102 °C	O=[N+]([O-])c1cc(Br)ccc1N1CCc2ccccc21
176 to 177 °C	COc1cc2c(cc1O)CCN(C(=O)c1ccccc1OC)C2
215 to 217 °C	O=C(CCc1ccc([N+](=O)[O-])cc1)c1c(O)c2cccnc2n(-c2ccccc2)c1=O
161 to 163 °C	O=c1oc(-c2ccc(Cl)cc2)cc(O)c1SCCc1ccccc1
148 to 149 °C	COc1ccc2[nH]c(-c3ccccc3)cc2c1
162 to 164 °C	O=C(c1ccccc1)N1CCC(CN2CCc3c([nH]c4ccccc34)C2)CC1
98 to 104 °C	CC(C)(C)NC(=O)[C@@H]1CCCN1C(=O)[C@@H](O)[C@H](Cc1ccccc1)NC(=O)[C@H](CC(N)=O)NC(=O)COC1CCN(C(=O)OCc2ccccc2)CC1

Second part, the compound before the results:

SMILES	melting point
O=c1c2ccccc2nc(CCl)n1-c1ccccc1Cl	195 to 196 °C
CC(=O)Nc1ccc(C#N)cc1F	170 to 172 °C
CC(C)OP(=O)(OC(C)C)c1nc(N)nc(P(=O)(OC(C)C)OC(C)C)n1	123 to 124 °C
Cc1c(Nc2c(C#N)cnc3sc(C4=CCN(S(C)(=O)=O)CC4)cc23)ccc2[nH]ccc12	228 °C
COc1ccc2c(c1)CCC1C2CCC2(C)C(NC=O)CCC12 (centres undefined)	252 to 253 °C
CCON=C(CC)C1=C(O)CC(c2c(C)c3c(c(C)c2Cl)CC(C)(CC)C3)CC1=O (centres undefined)	56 to 58 °C
ClCc1nc2nc(Cl)c(Cl)nc2s1	126 to 128 °C
COc1cc(C(C)C(=O)NCC(COC(=O)C(C)(C)C)Cc2ccc(C(C)(C)C)cc2)ccc1NS(C)(=O)=O (centres undefined)	54 to 57 °C
CCC(O)(c1ccc(OCc2ccccc2)cc1)c1cccc(C(F)(F)F)c1 (centres undefined)	50 to 51 °C
C[C@@H](NC(=O)c1sc(-c2ccc(Cl)cc2)nc1C(F)(F)F)[C@](O)(Cn1cncn1)c1ccc(F)cc1F	78 to 79 °C
CCC(=O)c1ccc2c(c1)C(C(Cl)(Cl)Cl)OC(C(Cl)(Cl)Cl)O2 (centres undefined)	96 to 97 °C
COc1ccc(OC)c2c(=O)c3ccccc3sc12	201 to 202 °C
Cc1cc(OCC(F)(F)F)c(NC(=O)CN2CCN(CCO)CC2)c(OCC(F)(F)F)n1	117 to 118 °C
CCc1n[nH]c(CC)c1CCCCCOc1ccc(OC)cc1Cl	80 to 83 °C
COc1ccc(C(=O)NN=C(N)N)c(F)c1	220 °C
CCOC(=O)c1ccccc1-n1nc(C(=O)OCC)c2csc(N)c2c1=O	176 to 178 °C
CCNS(=O)(=O)c1ccc(N)c(C(=O)N2CCN(C)CC2)c1	175 to 177 °C
COc1ccc(-c2cc(-c3nccs3)c(=O)n(C)c2-c2ccc(C)o2)cc1	205 to 206 °C
CCN(CC)C1=C2N=c3cc(Cl)ccc3=C2Oc2ccccc2N1C	127 to 128 °C
O=C(c1ccc(F)cc1)c1cc(Cl)nnc1Cl	71.1 to 72.6 °C
O=C1OCC2=C1C(c1ccccc1[N+](=O)[O-])C1=C(COC1=O)N2	273 to 274 °C
Cc1ccc2c(-c3cnc4[nH]cc(C(=O)N[C@H](C)C(=O)N5CC(C#N)C5)c4n3)nn(C)c2n1	275 to 285 °C
COC(=O)C(C)Oc1cc(C)ccc1COc1ccc(-n2c(=O)cc(C(F)(F)F)n(C)c2=O)cc1 (centres undefined)	52 to 54 °C

SMILES	melting point
CCC(=CC(COC(N)=O)=NO)C(C)[N+](=O)[O-] (centres undefined)	69 to 72 °C
CC(C)N1CCN(C(=O)OC2C3=C(SCCS3)C(=O)N2c2ccc(Cl)cn2)CC1 (centres undefined)	130 to 135 °C
COc1ccc(C(=O)Cc2c(Cl)cncc2Cl)c2c(CC(=O)OCc3ccccc3)coc12	132 to 133 °C
CN(C)c1ccc(-c2cc(N)n[nH]2)cc1	169 to 170 °C
Oc1ccc(-c2nc3cccc(O)c3[nH]2)cc1C12CC3CC(CC(C3)C1)C2	307 to 309 °C
FC(F)(F)Oc1ccc2c(c1)nc(/C=C/c1ccccc1)n2-c1ccccn1	92 to 93 °C
COc1ccc(C(=O)O)c(Oc2ccc(C(F)(F)F)cc2NS(=O)(=O)c2cc(C(F)(F)F)cc(C(F)(F)F)c2)c1	182 °C
N#Cc1ccc(C=O)cc1F	83 °C
Cn1cc(Cl)cnc1=O	210 °C
CC(C)C1(C)CC(=O)CC(C)(C)N1 (centres undefined)	47 to 53 °C
O=C1CN=C(c2ccccc2F)c2cc(Cl)ccc2N1	206 to 207 °C
COc1ccc(C2(COc3cccc4cc(NS(=O)(=O)C(F)(F)F)ccc34)N=CNO2)cc1 (centres undefined)	146 to 148 °C
CS(=O)(=O)c1ccc(-n2cncc2-c2ccccc2)cc1	164 °C
CC1(C)CC(=O)C2=C(C1)NC1=C(C(=O)CC(C)(C)C1)C2c1ccc(Cl)cc1Cl	> 300 °C
COC(=O)C1=CC=Nc2ccccc2C1	168 to 173 °C
O=C(O)CCCCCNC(=O)CCC(=O)Nc1cccc2ccccc12	229 to 231 °C
CC1=C(C(=O)OC(C)(C)C)C(c2ccc(Br)cc2F)C(C(=O)OC(C)(C)C)=C(C)N1	187 to 188 °C
Cn1nc(-c2ccncc2)nc1-c1ccccn1	145 to 146 °C
O=C(c1ccccc1)c1cc(Cl)ccc1-n1ccnc1	106 to 108 °C
OCC1OC(n2c(Cl)c(-c3ccsc3)c3cc(Cl)c(Cl)cc32)C(O)C1O (centres undefined)	152 to 153 °C
COc1ccc2c(c1)c(Cc1cc(=O)n(-c3ccc(C)cc3)[nH]1)c(C)n2C(=O)c1ccc(Cl)cc1	131 to 133 °C
COC(=O)CN(C)c1cccc(Br)n1	47 to 48 °C
CCC(=O)Oc1ccc(S(=O)(=O)N2c3ccccc3-c3ccc(F)cc3C2CC)cc1 (centres undefined)	111 to 112 °C

SMILES	melting point
CCCN(C(=O)C=C(C)C)c1cccc(Br)c1	50 to 51 °C
COc1ccc(C(=O)Nc2c(Cl)cncc2Cl)cc1OC1COCC1OC (centres undefined)	175 to 177 °C
CC(=O)c1c[nH]c(-c2ccccc2)n1	158 °C
CCCc1c(OCCCOc2ccc(NC(=O)C(=O)O)cc2OC)ccc(C(C)=O)c1O	125 to 127 °C
CCCCc1c(C)c2ccc(OCCCCl)cc2[nH]c1=O	203 °C
COc1ccc2cc(C(=O)c3ccc(C)c(C)c3)oc2c1	95 to 97 °C
COc1cc(C#N)ccc1-c1ccnc(-c2ccc(C#N)cc2)n1	239 to 240 °C
COC(=O)c1cccc(-c2nc(-c3ccc(F)cc3F)cs2)c1	121 to 122 °C
CN(C)c1c(C(N)=O)cnc2c(NC(=O)c3c(Cl)cccc3Cl)cccc12	222 to 223 °C
S=C1c2cccnc2N(c2ccccc2)C2=NCCN12	293 to 296 °C
CCOC(=O)c1cn(-c2nc(NC(C)(C)C)c(F)cc2F)c2c(Br)c(F)c(F)cc2c1=O	198 to 203 °C
CCCc1nc(C(O)C(C)C)c(C#N)n1Cc1ccc(-c2ccccc2-c2nnnn2C(c2ccccc2)(c2ccccc2)c2ccccc2)cc1 (centres undefined)	154 to 155 °C
c1cc(NC2CC2)ccn1	111 to 112 °C
CC(C)Cc1ccc2sc3cc(CC(=O)O)ccc3c2c1	133 to 135 °C
CC(=O)Oc1cccc(C(=O)Nc2nc(S(C)(=O)=O)cs2)c1	209 to 212 °C
CCCN1CC(=O)C(C(=O)OCC)C1=O (centres undefined)	123 to 125 °C
Cc1nnc2n1-c1sccc1C(c1ccccc1Cl)=NC2	221 to 223 °C
COc1ccc(CC(=O)NCCc2cccc3c2OCO3)cc1OC	124 °C
CCCC(=O)Oc1ccc(-c2ccc(C#N)cc2)cc1	77.9 to 78.2 °C
CSc1nc(C)ccc1NC(=O)CCCCCCCCSc1nc2ccccc2[nH]1	73 to 75 °C
COC(=O)Cc1ccc(OCC(C)NC(C)C(O)c2ccccc2)cc1 (centres undefined)	122 °C
CCOC(=O)c1cc(=O)c2c(OCC(O)COc3cccc4occc(=O)c34)cccc2o1 (centres undefined)	155 to 159 °C
CN(C)c1ccc2c(c1)C(=O)OC2	182 to 185 °C
